Measured values reported in ChEMBL document CHEMBL4725218, “Deep Learning Enhancing Kinome-Wide Polypharmacology Profiling: Model Construction and Experiment Validation” (J Med Chem, 2020).

Assays:
[1] = molecular target: Receptor-type tyrosine-protein kinase FLT3 (Homo sapiens) (UniProt P36888); assay: Inhibition of human FLT3 assessed as remaining enzyme activity at 1 uM
[2] = molecular target: RAF proto-oncogene serine/threonine-protein kinase (Homo sapiens) (UniProt P04049); assay: Inhibition of human RAF1 assessed as remaining enzyme activity at 0.01 uM
[3] = molecular target: Tyrosine-protein kinase ABL1 (Mus musculus) (UniProt P00520); assay: Inhibition of mouse Abl assessed as remaining enzyme activity at 0.1 uM
[4] = molecular target: NT-3 growth factor receptor (Homo sapiens) (UniProt Q16288); assay: Inhibition of human TRKC assessed as remaining enzyme activity at 0.1 uM
[5] = species: Homo sapiens; assay: Inhibition of human p70S6K assessed as remaining enzyme activity at 1 uM
[6] = molecular target: Tyrosine-protein kinase ABL1 (Homo sapiens) (UniProt P00519); assay: Inhibition of human ABL assessed as remaining enzyme activity at 0.1 uM
[7] = molecular target: Vascular endothelial growth factor receptor 1 (Homo sapiens) (UniProt P17948); assay: Inhibition of human VEGFR1 assessed as remaining enzyme activity at 0.01 uM
[8] = molecular target: RAF proto-oncogene serine/threonine-protein kinase (Homo sapiens) (UniProt P04049); assay: Inhibition of human C-Raf assessed as remaining enzyme activity at 0.1 uM
[9] = molecular target: Homeodomain-interacting protein kinase 2 (Homo sapiens) (UniProt Q9H2X6); assay: Inhibition of human HIPK2 assessed as remaining enzyme activity at 0.01 uM
[10] = molecular target: Vascular endothelial growth factor receptor 2 (Homo sapiens) (UniProt P35968); assay: Inhibition of human VEGFR2 assessed as remaining enzyme activity at 0.1 uM
[11] = molecular target: Homeodomain-interacting protein kinase 3 (Homo sapiens) (UniProt Q9H422); assay: Inhibition of human HIPK3 assessed as remaining enzyme activity at 0.1 uM
[12] = molecular target: Tyrosine-protein kinase Lyn (Homo sapiens) (UniProt P07948); assay: Inhibition of human LYN assessed as remaining enzyme activity at 0.01 uM
[13] = molecular target: Ephrin type-A receptor 2 (Homo sapiens) (UniProt P29317); assay: Inhibition of human EphA2 assessed as remaining enzyme activity at 0.1 uM
[14] = molecular target: Cyclin-dependent kinase-like 2 (Homo sapiens) (UniProt Q92772); assay: Inhibition of human CDKL2 assessed as remaining enzyme activity at 1 uM
[15] = molecular target: Macrophage colony-stimulating factor 1 receptor (Homo sapiens) (UniProt P07333); assay: Inhibition of human FMS assessed as remaining enzyme activity at 1 uM
[16] = molecular target: T1, Muscle, skeletal receptor tyrosine-protein kinase (Homo sapiens) (UniProt O15146); assay: Inhibition of human MuSK assessed as remaining enzyme activity at 0.1 uM
T1 sequence (whole entry): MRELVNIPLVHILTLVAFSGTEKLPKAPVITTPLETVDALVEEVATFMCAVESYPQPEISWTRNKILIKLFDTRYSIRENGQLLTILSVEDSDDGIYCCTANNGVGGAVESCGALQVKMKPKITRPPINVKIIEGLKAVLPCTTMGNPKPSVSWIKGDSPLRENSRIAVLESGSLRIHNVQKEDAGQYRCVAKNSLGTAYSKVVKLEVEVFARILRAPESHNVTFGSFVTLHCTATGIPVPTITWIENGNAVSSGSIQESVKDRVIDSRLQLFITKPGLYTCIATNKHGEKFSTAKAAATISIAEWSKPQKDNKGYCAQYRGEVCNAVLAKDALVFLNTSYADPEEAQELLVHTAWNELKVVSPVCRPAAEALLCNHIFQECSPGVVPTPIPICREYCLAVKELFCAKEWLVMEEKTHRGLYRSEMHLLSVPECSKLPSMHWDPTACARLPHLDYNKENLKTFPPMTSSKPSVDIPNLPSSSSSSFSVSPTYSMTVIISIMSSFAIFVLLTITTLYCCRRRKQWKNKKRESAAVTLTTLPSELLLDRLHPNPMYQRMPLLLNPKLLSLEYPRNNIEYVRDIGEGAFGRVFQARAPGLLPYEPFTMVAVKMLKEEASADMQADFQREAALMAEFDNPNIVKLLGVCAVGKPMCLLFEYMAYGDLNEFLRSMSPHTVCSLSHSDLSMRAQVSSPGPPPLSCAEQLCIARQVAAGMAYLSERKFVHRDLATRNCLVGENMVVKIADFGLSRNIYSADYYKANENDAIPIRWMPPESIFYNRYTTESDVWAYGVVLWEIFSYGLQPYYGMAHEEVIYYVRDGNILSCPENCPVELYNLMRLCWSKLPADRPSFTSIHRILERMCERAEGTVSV

[17] = molecular target: T2, Ephrin type-A receptor 8 (Homo sapiens) (UniProt P29322); assay: Inhibition of human EphA8 assessed as remaining enzyme activity at 1 uM
T2 sequence (whole entry): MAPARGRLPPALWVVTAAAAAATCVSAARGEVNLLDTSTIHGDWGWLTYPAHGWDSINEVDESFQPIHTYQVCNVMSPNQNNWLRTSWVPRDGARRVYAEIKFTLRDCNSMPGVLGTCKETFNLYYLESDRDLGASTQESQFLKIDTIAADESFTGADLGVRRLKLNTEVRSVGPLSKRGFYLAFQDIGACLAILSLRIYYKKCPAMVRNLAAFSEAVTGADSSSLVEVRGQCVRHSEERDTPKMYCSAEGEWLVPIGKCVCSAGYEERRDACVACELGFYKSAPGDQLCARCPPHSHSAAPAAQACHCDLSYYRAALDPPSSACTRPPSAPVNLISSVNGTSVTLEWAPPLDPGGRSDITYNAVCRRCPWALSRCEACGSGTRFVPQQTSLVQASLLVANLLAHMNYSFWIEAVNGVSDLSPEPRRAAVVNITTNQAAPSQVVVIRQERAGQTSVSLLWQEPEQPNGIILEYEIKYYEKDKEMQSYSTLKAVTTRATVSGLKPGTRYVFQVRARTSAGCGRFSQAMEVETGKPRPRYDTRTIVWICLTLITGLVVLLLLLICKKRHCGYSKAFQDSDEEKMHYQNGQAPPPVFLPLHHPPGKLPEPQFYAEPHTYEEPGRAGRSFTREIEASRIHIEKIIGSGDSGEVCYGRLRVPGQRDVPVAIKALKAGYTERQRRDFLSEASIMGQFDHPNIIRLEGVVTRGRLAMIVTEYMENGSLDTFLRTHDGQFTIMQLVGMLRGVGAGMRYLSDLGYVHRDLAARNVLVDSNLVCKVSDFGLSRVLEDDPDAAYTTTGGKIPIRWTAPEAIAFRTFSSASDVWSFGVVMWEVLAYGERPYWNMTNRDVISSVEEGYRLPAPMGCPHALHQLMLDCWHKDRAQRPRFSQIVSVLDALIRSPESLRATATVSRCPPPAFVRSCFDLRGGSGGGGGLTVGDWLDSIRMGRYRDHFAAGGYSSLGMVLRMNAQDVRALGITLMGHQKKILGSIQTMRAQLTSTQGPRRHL

[18] = molecular target: Tyrosine-protein kinase FRK (Homo sapiens) (UniProt P42685); assay: Inhibition of human PTK5 assessed as remaining enzyme activity at 0.01 uM
[19] = molecular target: Macrophage colony-stimulating factor 1 receptor (Homo sapiens) (UniProt P07333); assay: Inhibition of human FMS assessed as remaining enzyme activity at 0.01 uM

Macrophage colony-stimulating factor 1 receptor (Homo sapiens), sequence (P07333 whole entry): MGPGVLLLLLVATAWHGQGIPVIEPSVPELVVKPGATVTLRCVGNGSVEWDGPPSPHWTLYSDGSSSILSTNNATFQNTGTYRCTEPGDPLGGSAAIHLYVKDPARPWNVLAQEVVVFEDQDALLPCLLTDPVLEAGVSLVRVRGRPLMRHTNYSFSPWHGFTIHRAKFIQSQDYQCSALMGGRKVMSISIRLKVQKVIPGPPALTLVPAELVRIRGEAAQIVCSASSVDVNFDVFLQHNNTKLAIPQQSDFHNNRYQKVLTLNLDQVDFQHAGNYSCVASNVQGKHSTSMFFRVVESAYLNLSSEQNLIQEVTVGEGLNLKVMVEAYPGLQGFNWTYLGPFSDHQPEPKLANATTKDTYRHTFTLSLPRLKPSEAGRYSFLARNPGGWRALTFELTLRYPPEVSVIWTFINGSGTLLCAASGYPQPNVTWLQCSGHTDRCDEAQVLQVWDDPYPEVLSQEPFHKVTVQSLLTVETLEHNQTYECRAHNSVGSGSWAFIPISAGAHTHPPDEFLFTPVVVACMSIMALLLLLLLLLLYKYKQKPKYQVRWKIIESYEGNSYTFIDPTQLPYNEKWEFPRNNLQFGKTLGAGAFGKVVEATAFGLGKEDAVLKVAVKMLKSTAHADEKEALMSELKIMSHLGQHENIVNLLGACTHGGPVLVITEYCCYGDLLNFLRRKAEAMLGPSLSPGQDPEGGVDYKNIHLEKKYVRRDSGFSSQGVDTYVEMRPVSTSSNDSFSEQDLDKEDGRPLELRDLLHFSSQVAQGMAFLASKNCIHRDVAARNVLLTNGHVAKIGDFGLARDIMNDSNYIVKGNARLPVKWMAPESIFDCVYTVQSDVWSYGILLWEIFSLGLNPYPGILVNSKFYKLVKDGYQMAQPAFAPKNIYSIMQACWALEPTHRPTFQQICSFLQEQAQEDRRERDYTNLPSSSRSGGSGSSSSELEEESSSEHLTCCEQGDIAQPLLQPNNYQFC
RAF proto-oncogene serine/threonine-protein kinase (Homo sapiens), sequence (P04049 whole entry): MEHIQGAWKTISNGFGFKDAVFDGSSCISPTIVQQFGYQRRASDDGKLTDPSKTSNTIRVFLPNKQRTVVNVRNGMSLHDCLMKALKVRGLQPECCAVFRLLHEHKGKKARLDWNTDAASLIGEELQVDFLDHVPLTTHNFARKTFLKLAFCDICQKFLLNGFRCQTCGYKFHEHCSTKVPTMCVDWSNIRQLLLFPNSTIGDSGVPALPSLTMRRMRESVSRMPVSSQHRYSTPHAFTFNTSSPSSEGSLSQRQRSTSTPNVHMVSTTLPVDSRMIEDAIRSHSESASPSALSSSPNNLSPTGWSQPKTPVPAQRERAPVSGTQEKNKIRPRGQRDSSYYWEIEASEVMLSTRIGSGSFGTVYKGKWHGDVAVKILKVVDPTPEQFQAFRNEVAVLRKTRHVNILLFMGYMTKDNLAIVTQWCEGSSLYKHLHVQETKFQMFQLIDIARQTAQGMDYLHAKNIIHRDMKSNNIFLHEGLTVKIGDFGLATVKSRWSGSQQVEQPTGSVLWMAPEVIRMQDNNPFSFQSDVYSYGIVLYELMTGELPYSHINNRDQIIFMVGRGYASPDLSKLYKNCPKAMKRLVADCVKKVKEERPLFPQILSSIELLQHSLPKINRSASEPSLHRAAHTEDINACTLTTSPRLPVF
Receptor-type tyrosine-protein kinase FLT3 (Homo sapiens), sequence (P36888 whole entry): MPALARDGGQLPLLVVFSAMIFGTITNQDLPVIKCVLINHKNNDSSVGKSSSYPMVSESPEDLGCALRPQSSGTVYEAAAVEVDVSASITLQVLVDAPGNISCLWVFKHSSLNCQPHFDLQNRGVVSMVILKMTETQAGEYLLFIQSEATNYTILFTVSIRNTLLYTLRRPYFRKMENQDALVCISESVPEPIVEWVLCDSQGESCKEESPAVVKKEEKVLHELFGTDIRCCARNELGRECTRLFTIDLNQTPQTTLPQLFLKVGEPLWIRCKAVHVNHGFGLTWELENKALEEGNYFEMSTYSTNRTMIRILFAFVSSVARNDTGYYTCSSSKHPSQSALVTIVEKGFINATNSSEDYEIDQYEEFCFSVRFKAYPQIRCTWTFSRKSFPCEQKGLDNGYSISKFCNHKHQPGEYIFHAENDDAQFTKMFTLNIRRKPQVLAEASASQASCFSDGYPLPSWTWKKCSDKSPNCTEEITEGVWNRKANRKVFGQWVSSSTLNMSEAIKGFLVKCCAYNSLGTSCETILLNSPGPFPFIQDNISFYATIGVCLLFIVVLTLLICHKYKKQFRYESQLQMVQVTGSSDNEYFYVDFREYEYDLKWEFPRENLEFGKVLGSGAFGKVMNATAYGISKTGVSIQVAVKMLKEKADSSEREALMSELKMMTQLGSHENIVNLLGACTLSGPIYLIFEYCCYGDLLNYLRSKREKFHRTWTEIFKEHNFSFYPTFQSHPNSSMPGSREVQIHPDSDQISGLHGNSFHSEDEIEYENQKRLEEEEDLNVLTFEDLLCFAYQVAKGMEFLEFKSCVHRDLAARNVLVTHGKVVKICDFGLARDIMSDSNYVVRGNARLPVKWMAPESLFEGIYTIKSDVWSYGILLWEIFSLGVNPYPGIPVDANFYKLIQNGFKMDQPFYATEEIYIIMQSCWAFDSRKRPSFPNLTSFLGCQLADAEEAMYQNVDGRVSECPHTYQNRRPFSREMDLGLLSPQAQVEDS
Tyrosine-protein kinase ABL1 (Homo sapiens), sequence (P00519 whole entry): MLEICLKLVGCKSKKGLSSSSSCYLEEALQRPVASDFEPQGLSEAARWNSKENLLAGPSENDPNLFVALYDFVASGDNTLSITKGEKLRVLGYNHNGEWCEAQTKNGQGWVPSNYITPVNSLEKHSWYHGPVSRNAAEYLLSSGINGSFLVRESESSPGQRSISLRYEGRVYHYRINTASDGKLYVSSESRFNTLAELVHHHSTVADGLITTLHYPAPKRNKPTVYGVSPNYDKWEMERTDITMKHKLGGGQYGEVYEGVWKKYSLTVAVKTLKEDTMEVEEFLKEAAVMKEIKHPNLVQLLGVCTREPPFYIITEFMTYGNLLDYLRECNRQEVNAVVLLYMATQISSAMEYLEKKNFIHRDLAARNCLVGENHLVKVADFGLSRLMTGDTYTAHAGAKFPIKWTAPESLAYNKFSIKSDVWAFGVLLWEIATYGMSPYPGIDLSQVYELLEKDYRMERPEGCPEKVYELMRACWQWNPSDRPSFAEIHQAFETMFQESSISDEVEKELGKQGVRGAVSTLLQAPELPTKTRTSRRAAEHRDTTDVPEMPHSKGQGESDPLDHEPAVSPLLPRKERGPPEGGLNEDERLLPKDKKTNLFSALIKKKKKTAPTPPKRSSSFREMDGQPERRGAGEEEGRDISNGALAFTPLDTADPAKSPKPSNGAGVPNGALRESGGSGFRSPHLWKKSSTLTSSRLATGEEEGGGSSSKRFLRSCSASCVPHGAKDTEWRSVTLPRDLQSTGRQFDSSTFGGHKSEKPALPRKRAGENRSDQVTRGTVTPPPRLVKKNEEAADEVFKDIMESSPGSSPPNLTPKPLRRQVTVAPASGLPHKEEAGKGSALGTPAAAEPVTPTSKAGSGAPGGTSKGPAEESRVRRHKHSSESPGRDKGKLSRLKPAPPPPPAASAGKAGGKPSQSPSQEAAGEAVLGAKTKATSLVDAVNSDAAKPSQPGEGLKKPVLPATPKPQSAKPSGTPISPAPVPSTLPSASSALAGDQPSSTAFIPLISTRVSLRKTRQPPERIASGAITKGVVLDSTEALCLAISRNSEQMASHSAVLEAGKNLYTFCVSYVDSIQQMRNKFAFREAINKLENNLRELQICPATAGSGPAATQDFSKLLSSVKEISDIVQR
Cyclin-dependent kinase-like 2 (Homo sapiens), sequence (Q92772 whole entry): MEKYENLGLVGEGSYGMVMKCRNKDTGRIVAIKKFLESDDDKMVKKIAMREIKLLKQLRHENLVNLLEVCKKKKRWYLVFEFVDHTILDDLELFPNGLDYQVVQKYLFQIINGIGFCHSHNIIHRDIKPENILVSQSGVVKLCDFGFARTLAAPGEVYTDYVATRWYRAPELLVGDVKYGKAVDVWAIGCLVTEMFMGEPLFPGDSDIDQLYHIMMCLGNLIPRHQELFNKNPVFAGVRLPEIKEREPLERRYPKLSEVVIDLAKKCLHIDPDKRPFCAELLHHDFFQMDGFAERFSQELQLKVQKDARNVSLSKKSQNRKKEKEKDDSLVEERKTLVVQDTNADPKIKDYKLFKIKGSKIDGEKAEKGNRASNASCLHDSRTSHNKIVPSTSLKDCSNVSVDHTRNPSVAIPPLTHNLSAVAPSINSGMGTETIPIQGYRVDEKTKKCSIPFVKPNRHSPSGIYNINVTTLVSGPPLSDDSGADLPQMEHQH
Tyrosine-protein kinase FRK (Homo sapiens), sequence (P42685 whole entry): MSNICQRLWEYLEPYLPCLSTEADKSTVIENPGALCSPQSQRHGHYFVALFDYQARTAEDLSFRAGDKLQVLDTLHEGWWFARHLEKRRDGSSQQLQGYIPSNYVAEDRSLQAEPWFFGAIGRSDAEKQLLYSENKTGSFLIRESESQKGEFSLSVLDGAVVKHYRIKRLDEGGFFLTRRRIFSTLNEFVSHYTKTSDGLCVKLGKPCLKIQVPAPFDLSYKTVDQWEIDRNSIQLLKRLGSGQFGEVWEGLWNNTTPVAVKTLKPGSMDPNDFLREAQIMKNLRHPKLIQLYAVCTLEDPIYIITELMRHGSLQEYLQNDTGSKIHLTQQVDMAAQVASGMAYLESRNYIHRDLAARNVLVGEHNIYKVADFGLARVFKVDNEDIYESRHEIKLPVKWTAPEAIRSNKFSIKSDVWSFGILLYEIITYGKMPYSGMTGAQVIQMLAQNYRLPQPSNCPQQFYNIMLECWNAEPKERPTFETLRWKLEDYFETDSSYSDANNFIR

Activity [1]: 31%
Activity [2]: 93%
Activity [3]: -7%
Activity [4]: 17%
Activity [5]: 36%
Activity [6]: 49%
Activity [7]: 43%
Activity [8]: 57%
Activity [9]: 96%
Activity [10]: 19%
Activity [11]: 68%
Activity [12]: 32%
Activity [13]: 58%
Activity [14]: 47%
Activity [15]: 10%
Activity [16]: 92%
Activity [17]: 5%
Activity [18]: 64%
Activity [19]: 73%
SMILES: CNC(=O)c1cc(Oc2ccc(NC(=O)Nc3ccc(Cl)c(C(F)(F)F)c3)c(F)c2)ccn1
